Target: SARS-CoV-2 3CL-protease (Severe acute respiratory syndrome coronavirus 2, UniProt P0DTD1)
Test: SARS-CoV-2 3C-like (3CL) protease fluorescence assay (FRET)
Type: biochemical
Conditions: recombinant SARS-CoV-2 3CL-protease 10 nM, 30 min preincubation, run in duplicate; read-out: FRET IC50

## [2H]C([2H])([2H])N(C(=O)C(=O)Nc1ccc(C(F)(F)F)cc1)[C@@H](CC1CC1)C(=O)N1C[C@]2(C[C@H]1C#N)C(=O)Nc1ccccc12 [Example 54]
  IC50: < 100 nM

## [2H]C([2H])([2H])N(C(=O)C(=O)Nc1ccc(F)cc1C(F)(F)F)[C@@H](CC1CC1)C(=O)N1C[C@]2(C[C@H]1C#N)C(=O)Nc1ccccc12 [Example 55]
  IC50: < 100 nM

## [2H]C([2H])([2H])N(C(=O)C(=O)NCC(C)C)[C@@H](CCCC)C(=O)N1C[C@]2(C[C@H]1C#N)C(=O)Nc1ccccc12 [Example 56]
  IC50: < 100 nM

## [2H]C([2H])([2H])N(C(=O)C(=O)c1ccc(F)cc1)[C@@H](CCCC)C(=O)N1C[C@]2(C[C@H]1C#N)C(=O)Nc1ccccc12 [Example 57]
  IC50: < 100 nM

## CC(C)(C)C[C@@H](C(=O)N1C[C@]2(C[C@H]1C#N)C(=O)Nc1ccccc12)N(CC(F)F)C(=O)C(=O)Nc1ccccc1 [Example 60]
  IC50: 100 to 1000 nM

## CC(C)(C)C[C@@H](C(=O)N1C[C@]2(C[C@H]1C#N)C(=O)Nc1ccccc12)N(CC(F)F)C(=O)C(=O)Nc1ccccn1 [Example 61]
  IC50: > 1000 nM

## CC(C)(C)C[C@@H](C(=O)N1C[C@]2(C[C@H]1C#N)C(=O)Nc1ccccc12)N(CC(F)F)C(=O)C(=O)Nc1ccc(F)cc1 [Example 62]
  IC50: 100 to 1000 nM

## CC(C)(C)C[C@@H](C(=O)N1C[C@]2(C[C@H]1C#N)C(=O)Nc1ccccc12)N(CC(F)F)C(=O)C(=O)NC1CC1 [Example 63]
  IC50: 100 to 1000 nM

## CC(C)(C)C[C@@H](C(=O)N1C[C@]2(C[C@H]1C#N)C(=O)Nc1ccccc12)N(CC(F)(F)F)C(=O)C(=O)Nc1ccc(F)cc1 [Example 64]
  IC50: 100 to 1000 nM

## CC(C)(C)C[C@@H](C(=O)N1C[C@]2(C[C@H]1C#N)C(=O)Nc1ccccc12)N(CC(F)(F)F)C(=O)C(=O)Nc1ccccc1 [Example 65]
  IC50: 100 to 1000 nM

## CC(C)(C)C[C@@H](C(=O)N1C[C@]2(C[C@H]1C#N)C(=O)Nc1ccccc12)N(CC(F)(F)F)C(=O)C(=O)Nc1ccccn1 [Example 66]
  IC50: > 1000 nM

## CC(C)(C)C[C@@H](C(=O)N1C[C@]2(C[C@H]1C#N)C(=O)Nc1ccccc12)N(CC(F)(F)F)C(=O)C(=O)NC1CC1 [Example 67]
  IC50: 100 to 1000 nM

## Cc1cccc(C)c1NC(=O)C(=O)N[C@@H](Cc1ccc(F)cc1)C(=O)N1C[C@]2(C[C@H]1C#N)C(=O)Nc1ccccc12 [Example 73]
  IC50: < 100 nM

## Cc1cccc(C)c1NC(=O)C(=O)N[C@@H](CC1CC1)C(=O)N1C[C@]2(C[C@H]1C#N)C(=O)Nc1ccccc12 [Example 78]
  IC50: < 100 nM

## CCCC[C@H](NC(=O)C(=O)Nc1c(F)cccc1C(F)(F)F)C(=O)N1C[C@]2(C[C@H]1C#N)C(=O)Nc1ccccc12 [Example 79]
  IC50: < 100 nM

## CC(C)(C)C[C@H](NC(=O)C(=O)Nc1cc(F)cc(F)c1)C(=O)N1C[C@]2(C[C@H]1C#N)C(=O)Nc1ccccc12 [Example 86]
  IC50: < 100 nM

## CC(C)(C)C[C@H](NC(=O)C(=O)NC(C)(C)c1ccccn1)C(=O)N1C[C@]2(C[C@H]1C#N)C(=O)Nc1ccccc12 [Example 106]
  IC50: < 100 nM

## CC(C)(C)C[C@H](NC(=O)C(=O)NC1(c2ccccc2C(F)(F)F)CC1)C(=O)N1C[C@]2(C[C@H]1C#N)C(=O)Nc1ccccc12 [Example 107]
  IC50: < 100 nM

## CC(C)(C)C[C@H](NC(=O)C(=O)NC1(c2ccc(C(F)(F)F)cc2)CC1)C(=O)N1C[C@]2(C[C@H]1C#N)C(=O)Nc1ccccc12 [Example 108]
  IC50: < 100 nM

## CN(C(=O)C(=O)N[C@@H](CC(C)(C)C)C(=O)N1C[C@]2(C[C@H]1C#N)C(=O)Nc1ccccc12)C1CC1 [Example 109]
  IC50: > 1000 nM

## CC(C)(C)C[C@H](NC(=O)C(=O)N1CCCCC1)C(=O)N1C[C@]2(C[C@H]1C#N)C(=O)Nc1ccccc12 [Example 110]
  IC50: > 1000 nM

## CC(C)(C)C[C@H](NC(=O)C(=O)N1CCC(F)(F)CC1)C(=O)N1C[C@]2(C[C@H]1C#N)C(=O)Nc1ccccc12 [Example 111]
  IC50: > 1000 nM

## CC(C)(C)C[C@H](NC(=O)C(=O)N1CCC(C(F)(F)F)CC1)C(=O)N1C[C@]2(C[C@H]1C#N)C(=O)Nc1ccccc12 [Example 112]
  IC50: 100 to 1000 nM

## CC(C)(C)C[C@H](NC(=O)C(=O)Nc1ccc2cccnc2c1)C(=O)N1C[C@]2(C[C@H]1C#N)C(=O)Nc1ccccc12 [Example 113]
  IC50: < 100 nM

## CC(C)(C)C[C@H](NC(=O)C(=O)Nc1ccc2ncccc2c1)C(=O)N1C[C@]2(C[C@H]1C#N)C(=O)Nc1ccccc12 [Example 114]
  IC50: < 100 nM

## CC(C)(C)C[C@H](NC(=O)C(=O)Nc1ncccc1F)C(=O)N1C[C@]2(C[C@H]1C#N)C(=O)Nc1ccccc12 [Example 121]
  IC50: < 100 nM

## CC(C)(C)C[C@H](NC(=O)C(=O)Nc1c(F)cncc1F)C(=O)N1C[C@]2(C[C@H]1C#N)C(=O)Nc1ccccc12 [Example 122]
  IC50: < 100 nM

## CC(C)(C)C[C@H](NC(=O)C(=O)Nc1ccc2[nH]ccc2c1)C(=O)N1C[C@]2(C[C@H]1C#N)C(=O)Nc1ccccc12 [Example 123]
  IC50: < 100 nM

## CC(C)(C)C[C@H](NC(=O)C(=O)Nc1ccc2cc[nH]c2c1)C(=O)N1C[C@]2(C[C@H]1C#N)C(=O)Nc1ccccc12 [Example 124]
  IC50: < 100 nM

## CC(C)(C)C[C@H](NC(=O)C(=O)Nc1ncccc1C(F)(F)F)C(=O)N1C[C@]2(C[C@H]1C#N)C(=O)Nc1ccccc12 [Example 125]
  IC50: < 100 nM

## Cc1cccnc1NC(=O)C(=O)N[C@@H](CC(C)(C)C)C(=O)N1C[C@]2(C[C@H]1C#N)C(=O)Nc1ccccc12 [Example 126]
  IC50: < 100 nM

## Cc1ccc(NC(=O)C(=O)N[C@@H](CC(C)(C)C)C(=O)N2C[C@]3(C[C@H]2C#N)C(=O)Nc2ccccc23)nc1 [Example 127]
  IC50: < 100 nM

## CC(C)(C)C[C@H](NC(=O)C(=O)Nc1ccnc(C(F)(F)F)c1)C(=O)N1C[C@]2(C[C@H]1C#N)C(=O)Nc1ccccc12 [Example 128]
  IC50: < 100 nM

## CC(C)(C)C[C@H](NC(=O)C(=O)N[C@]12C[C@](C(F)(F)F)(C1)C2)C(=O)N1C[C@]2(C[C@H]1C#N)C(=O)Nc1ccccc12 [Example 129]
  IC50: < 100 nM

## CC(C)(C)C[C@H](NC(=O)C(=O)NC12CCC(CC1)CC2)C(=O)N1C[C@]2(C[C@H]1C#N)C(=O)Nc1ccccc12 [Example 130]
  IC50: < 100 nM

## CC(C)(C)C[C@H](NC(=O)C(=O)NC1CCC(F)(F)CC1)C(=O)N1C[C@]2(C[C@H]1C#N)C(=O)Nc1ccccc12 [Example 131]
  IC50: < 100 nM

## Cc1cccc(C(F)(F)F)c1NC(=O)C(=O)N[C@@H](CC(C)(C)C)C(=O)N1C[C@]2(C[C@H]1C#N)C(=O)Nc1ccccc12 [Example 132]
  IC50: < 100 nM

## CC(C)(C)C[C@H](NC(=O)C(=O)NC1(C(F)(F)F)CC1)C(=O)N1C[C@]2(C[C@H]1C#N)C(=O)Nc1ccccc12 [Example 134]
  IC50: < 100 nM

## CC(C)(C)C[C@H](NC(=O)C(=O)NC(C)(C)C(F)(F)F)C(=O)N1C[C@]2(C[C@H]1C#N)C(=O)Nc1ccccc12 [Example 135]
  IC50: < 100 nM

## CC(C)(C)C[C@H](NC(=O)C(=O)N[C@]12CC[C@H](C1)C2)C(=O)N1C[C@]2(C[C@H]1C#N)C(=O)Nc1ccccc12 [Example 136]
  IC50: < 100 nM

## CC(C)(C)C[C@H](NC(=O)C(=O)Nc1ccc(C(F)(F)F)cc1C(F)(F)F)C(=O)N1C[C@]2(C[C@H]1C#N)C(=O)Nc1ccccc12 [Example 137]
  IC50: 100 to 1000 nM

## CC(C)(C)C[C@H](NC(=O)C(=O)NC1(c2ccccc2F)CC1)C(=O)N1C[C@]2(C[C@H]1C#N)C(=O)Nc1ccccc12 [Example 139]
  IC50: < 100 nM

## CC(C)(C)C[C@H](NC(=O)C(=O)NC1(C)CC1)C(=O)N1C[C@]2(C[C@H]1C#N)C(=O)Nc1ccccc12 [Example 140]
  IC50: < 100 nM

## CC(C)(C)C[C@H](NC(=O)C(=O)N[C@]12C[C@](C)(C1)C2)C(=O)N1C[C@]2(C[C@H]1C#N)C(=O)Nc1ccccc12 [Example 141]
  IC50: < 100 nM

## CC(C)(C)C[C@H](NC(=O)C(=O)N[C@]12C[C@](F)(C1)C2)C(=O)N1C[C@]2(C[C@H]1C#N)C(=O)Nc1ccccc12 [Example 142]
  IC50: < 100 nM

## Cc1cc(F)cc(C)c1NC(=O)C(=O)N[C@@H](CC(C)(C)C)C(=O)N1C[C@]2(C[C@H]1C#N)C(=O)Nc1ccccc12 [Example 143]
  IC50: < 100 nM

## COc1cccc(C)c1NC(=O)C(=O)N[C@@H](CC(C)(C)C)C(=O)N1C[C@]2(C[C@H]1C#N)C(=O)Nc1ccccc12 [Example 144]
  IC50: < 100 nM

## CC(C)(C)C[C@H](NC(=O)C(=O)Nc1c(C#N)cccc1C(F)(F)F)C(=O)N1C[C@]2(C[C@H]1C#N)C(=O)Nc1ccccc12 [Example 145]
  IC50: 100 to 1000 nM

## CC(C)(C)C[C@H](NC(=O)C(=O)Nc1c(F)cccc1Cl)C(=O)N1C[C@]2(C[C@H]1C#N)C(=O)Nc1ccccc12 [Example 146]
  IC50: < 100 nM

## Cc1cccc(Cl)c1NC(=O)C(=O)N[C@@H](CC(C)(C)C)C(=O)N1C[C@]2(C[C@H]1C#N)C(=O)Nc1ccccc12 [Example 147]
  IC50: < 100 nM

## CC(C)(C)C[C@H](NC(=O)C(=O)Nc1c(Cl)cccc1C#N)C(=O)N1C[C@]2(C[C@H]1C#N)C(=O)Nc1ccccc12 [Example 148]
  IC50: < 100 nM

## CC(C)(C)C[C@H](NC(=O)C(=O)Nc1ccc(Cl)cc1C(F)(F)F)C(=O)N1C[C@]2(C[C@H]1C#N)C(=O)Nc1ccccc12 [Example 149]
  IC50: < 100 nM

## CC(C)(C)C[C@H](NC(=O)C(=O)Nc1c(F)ccc(F)c1F)C(=O)N1C[C@]2(C[C@H]1C#N)C(=O)Nc1ccccc12 [Example 150]
  IC50: < 100 nM

## CN(C(=O)C(=O)Nc1c(Cl)cccc1Cl)[C@@H](CC(C)(C)C)C(=O)N1C[C@]2(C[C@H]1C#N)C(=O)Nc1ccccc12 [Example 151]
  IC50: < 100 nM

## Cc1ccnc(C)c1NC(=O)C(=O)N[C@@H](CC(C)(C)C)C(=O)N1C[C@]2(C[C@H]1C#N)C(=O)Nc1ccccc12 [Example 152]
  IC50: < 100 nM

## CC(C)(C)C[C@H](NC(=O)C(=O)Nc1cc(C(F)(F)F)ccn1)C(=O)N1C[C@]2(C[C@H]1C#N)C(=O)Nc1ccccc12 [Example 153]
  IC50: < 100 nM

## CC(C)(C)C[C@H](NC(=O)C(=O)Nc1ccc(C(F)(F)F)cn1)C(=O)N1C[C@]2(C[C@H]1C#N)C(=O)Nc1ccccc12 [Example 154]
  IC50: < 100 nM

## CC(C)(C)C[C@H](NC(=O)C(=O)Nc1cccc(C(F)(F)F)n1)C(=O)N1C[C@]2(C[C@H]1C#N)C(=O)Nc1ccccc12 [Example 155]
  IC50: < 100 nM

— patent publication US12643905B2, “Spiropyrrolidine derived antiviral agents” (priority 2021, dated 2026)
